Patent US10206907B2, “Compounds useful for the treatment of degenerative and inflammatory diseases” (GALAPAGOS NV, priority 2008, dated 2019)

Experiments:
[1] = molecular target: Recombinant human JAK2 catalytic domain (Homo sapiens (Human), UniProt O60674); assay: JAK2 inhibition assay; format: biochemical; settings: semi-quantitative score
Method in brief: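 Radiometric kinase reactions ran for 90 min at 30 °C and were stopped with phosphoric acid, then washed and counted by scintillation. Percent inhibition was set relative to vehicle and to 10 μM staurosporine background. IC50 was derived from dose-dilution series.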

[2] = Microsomal stability, rat liver microsomes; format: in vitro ADME; settings: percentage of compound remaining after 60 minutes, 3 μM compound
Method in brief: (§1)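 Compound was incubated with liver microsomes plus an NADP+/glucose-6-phosphate/G6PDH/MgCl2 regenerating system at 37°C for 1 h. Reactions were stopped 1:1 with MeOH or ACN and analysed by LCMS.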

[3] = molecular target: Recombinant human JAK3 catalytic domain (Homo sapiens (Human), UniProt P52333); assay: JAK3 inhibition assay; format: biochemical; settings: semi-quantitative score
Description: Plates were washed 6 times with 300 μL per well of a 75 mM phosphoric acid solution and the bottom of the plates was sealed. 40 μL/well of Microscint-20 was added, the top of the plates was sealed and readout was performed using the Topcount (Perkin Elmer). Kinase activity was calculated by subtracting counts per minute (cpm) obtained in the presence of a positive control inhibitor (10 μM staurosporine) from cpm obtained in the presence of vehicle. The ability of a test compound to inhibit this activity was determined as: Percentage inhibition=((cpm determined for sample with test compound present−cpm determined for sample with positive control inhibitor) divided by (cpm determined in the presence of vehicle−cpm determined for sample with positive control inhibitor))*100%.
Dose dilution series were prepared for the compounds enabling the testing of dose-response effects in the JAK3 assay and the calculation of the IC50 for each compound.

MMP13 in SW1353 cells = assay: OSM/IL-1β signaling assay (MMP13 levels in SW1353 cells); format: cell-based; settings: Homo sapiens; SW1353 cells, OSM and IL-1β triggered, MMP13 levels 48 hours after triggering; read-out: MMP13 EC50;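 note: secreted MMP13 captured by antibody, activated with APMA and its activity read by fluorescence, inhibition scaled between vehicle-treated triggered wells (0%) and untriggered wells (100%)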
Description: The cells were seeded in 96 well plates at 15,000 cells/well in a volume of 120 μL DMEM (Invitrogen) containing 10% (v/v) FBS and 1% penicillin/streptomycin (InVitrogen) incubated at 37° C. […] MMP13 activity was measured using an antibody capture activity assay. […] Next the wells were washed twice with PBS+0.05% Tween followed by MMP13 activation by addition of 35 μL of a 1.5 mM 4-Aminophenylmercuric acetate (APMA) (Sigma, A9563) solution and incubation at 37° C. for 1 hour. […] Percentage inhibition=((fluorescence determined in the presence of vehicle−fluorescence determined for sample with test compound present) divided by (fluorescence determined in the presence of vehicle−fluorescence determined for sample without trigger))*100%.

[4] = Microsomal stability, human liver microsomes; format: in vitro ADME; settings: percentage of compound remaining after 60 minutes, 3 μM compound
Method in brief: as §1

[5] = Caco2 permeability (bi-directional); format: in vitro ADME, human; settings: human, pH 7.4; for Papp A→B at 1 h, 10 µM: Caco-2, apical to basolateral, read-out: Papp (A2B); for efflux ratio at 1 h, 10 µM: Caco-2, ratio of PappB>A/PappA>B
Description: Bi-directional Caco-2 assays were performed as described below.
2×10^5 cells/well were seeded in plating medium consisting of DMEM+GlutaMAXI+1% NEAA+10% FBS (FetalClone II)+1% Pen/Strep. The medium was changed every 2-3 days.
50 μM Lucifer Yellow (Sigma) was added to the donor buffer in all wells to assess integrity of the cell layers by monitoring Lucifer Yellow permeation. As Lucifer Yellow (LY) cannot freely permeate lipophilic barriers, a high degree of LY transport indicates poor integrity of the cell layer.
After a 1 hour incubation at 37° C. while shaking at an orbital shaker at 150 rpm, 70 μL aliquots were taken from both apical (A) and basal (B) chambers and added to 100 μL1 50:50 acetonitrile:water solution containing analytical internal standard (0.5 μM carbamazepine) in a 96 well plate.
Concentrations of compound in the samples were measured by high performance liquid-chromatography/mass spectroscopy (LC-MS/MS).
The Efflux ratios, as an indication of active efflux from the apical cell surface, were calculated using the ratio of PappB>A/PappA>B.
The following assay acceptance criteria were used:
Lucifer yellow permeability: ≤100 nm/s

[6] = molecular target: Recombinant human JAK1 catalytic domain (Homo sapiens (Human), UniProt P23458); assay: JAK1 inhibition assay; format: biochemical; settings: semi-quantitative score
Method in brief: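 Radiometric assay read by scintillation counting after phosphoric-acid washes. Percent inhibition calculated from cpm relative to vehicle and 10 μM staurosporine control. IC50 derived from compound dose-dilution series.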

[7] = tested on: JAK-STAT signalling in HeLa cells; assay: JAK-STAT signalling assay (OSM-triggered pSTAT1(2)-luciferase reporter in HeLa cells); format: cell-based; settings: Homo sapiens; HeLa cells, OSM-triggered pSTAT1(2)-luciferase reporter; read-out: STAT signalling EC50
Method in brief: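 HeLa cells transiently transfected with pSTAT1(2)-luciferase reporter plus LacZ internal control, incubated overnight at 37 °C, 10% CO2, then OSM-stimulated with compound. Luciferase read by Steadylite luminescence and normalised to β-galactosidase (ONPG); percent inhibition from controls, EC50 from dose-response.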

Chain of Recombinant human JAK2 catalytic domain (O60674 808-1132): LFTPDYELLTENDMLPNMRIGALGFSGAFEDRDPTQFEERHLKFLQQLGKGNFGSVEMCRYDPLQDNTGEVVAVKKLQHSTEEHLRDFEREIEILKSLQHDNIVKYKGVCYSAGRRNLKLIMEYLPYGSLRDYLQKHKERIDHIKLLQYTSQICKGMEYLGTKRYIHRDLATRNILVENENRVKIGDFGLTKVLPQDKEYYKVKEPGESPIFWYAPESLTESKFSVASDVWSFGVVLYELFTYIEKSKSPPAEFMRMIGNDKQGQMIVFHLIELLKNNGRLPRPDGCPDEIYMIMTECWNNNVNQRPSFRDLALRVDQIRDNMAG
Chain of Recombinant human JAK3 catalytic domain (P52333 781-1124): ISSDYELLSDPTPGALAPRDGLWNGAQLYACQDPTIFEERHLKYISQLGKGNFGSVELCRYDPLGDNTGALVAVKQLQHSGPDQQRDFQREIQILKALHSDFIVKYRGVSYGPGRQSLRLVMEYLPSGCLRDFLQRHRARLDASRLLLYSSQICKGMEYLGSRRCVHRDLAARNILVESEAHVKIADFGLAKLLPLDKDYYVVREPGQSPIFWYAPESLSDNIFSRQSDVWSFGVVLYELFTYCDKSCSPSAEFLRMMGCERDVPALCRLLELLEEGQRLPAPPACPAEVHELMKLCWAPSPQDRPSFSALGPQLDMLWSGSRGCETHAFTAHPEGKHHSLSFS
Chain of Recombinant human JAK1 catalytic domain (P23458 850-1154): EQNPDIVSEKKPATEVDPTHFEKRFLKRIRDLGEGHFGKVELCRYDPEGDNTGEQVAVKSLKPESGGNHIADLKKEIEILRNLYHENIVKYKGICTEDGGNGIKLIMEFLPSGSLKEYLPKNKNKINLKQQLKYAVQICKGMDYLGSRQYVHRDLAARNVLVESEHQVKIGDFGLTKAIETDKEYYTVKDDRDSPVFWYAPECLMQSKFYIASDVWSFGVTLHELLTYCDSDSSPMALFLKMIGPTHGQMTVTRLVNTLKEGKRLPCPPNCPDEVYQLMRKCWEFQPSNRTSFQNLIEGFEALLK

Row | Structure (SMILES) | IC50 [1] [µM] | Microsomal Stability Rat (%) [2] | IC50 [3] [µM] | EC50 (MMP13 in SW1353 cells) [µM] | Microsomal Stability Human (%) [4] | Papp A→B at 1 h, 10 µM [5] [nm/s] | efflux ratio at 1 h, 10 µM [5] | IC50 [6] [µM] | EC50 [7] [µM]
1 | O=C(Nc1nc2cccc(-c3ccc(NCc4ccccc4)nc3)n2n1)C1CC1 [Compound 104, N-(5-(6-(benzylamino)pyridin-3-yl)-[1,2,4]triazolo[1,5-a]pyridin-2-yl)cyclopropanecarboxamide] | 0.101 to 0.5 | * (* 0-25) | > 1 | > 1 | * (* 0-25) | 280 | 0.9 | < 0.1 | > 1
2 | O=C(Nc1nc2cccc(-c3ccc(NCc4ccccc4)cc3)n2n1)C1CC1 [Compound 72, N-(5-(4-(benzylamino)phenyl)-[1,2,4]triazolo[1,5-a]pyridin-2-yl)cyclopropanecarboxamide] | < 0.1 | * (* 0-25) | 0.501 to 1 | 0.501 to 1 | * (* 0-25) | – | 1.31 | < 0.1 | > 1
3 | O=C(Nc1nc2cccc(-c3ccc(C(=O)N4CCCN(Cc5ccccc5)CC4)cc3)n2n1)C1CC1 [Compound 75, N-(5-(4-(4-benzyl-1,4-diazepane-1-carbonyl)phenyl)-[1,2,4]triazolo[1,5-a]pyridin-2-yl)cyclopropanecarboxamide] | 0.101 to 0.5 | * (* 0-25) | > 1 | 0.501 to 1 | * (* 0-25) | 182 | 2.5 | < 0.1 | > 1
4 | O=C(Nc1nc2cccc(-c3ccc(CN4CCC(C(F)(F)F)CC4)cc3)n2n1)C1CC1 [Compound 240, Cyclopropanecarboxylic acid {5-[4-(4-trifluoromethyl-piperidin-1-ylmethyl)-phenyl]-[1,2,4]triazolo[1,5-a]pyridin-2-yl}-amide] | < 0.1 | *** (*** 51-75) | 0.501 to 1 | > 1 | ** (** 26-50) | 296 | 1.3 | < 0.1 | 0.101 to 0.5
5 | O=C(CCOc1ccccc1)Nc1ccc(-c2cccc3nc(NC(=O)C4CC4)nn23)cc1 [Compound 108] | < 0.1 | * (* 0-25) | > 1 | 0.501 to 1 | * (* 0-25) | 277 | 1.4 | < 0.1 | 0.501 to 1
6 | O=C(Nc1nc2cccc(-c3cnn(Cc4ccccc4)c3)n2n1)C1CC1 [Compound 107, N-(5-(1-benzyl-1H-pyrazol-4-yl)-[1,2,4]triazolo[1,5-a]pyridin-2-yl)cyclopropanecarboxamide] | < 0.1 | * (* 0-25) | > 1 | > 1 | * (* 0-25) | 242 | 1.05 | < 0.1 | > 1
7 | O=C(Nc1nc2cccc(-c3ccc(NS(=O)(=O)CCc4ccccc4)cc3)n2n1)C1CC1 [Compound 76, N-(5-(4-(2-phenylethylsulfonamido)phenyl)-[1,2,4]triazolo[1,5-a]pyridin-2-yl)cyclopropanecarboxamide] | < 0.1 | * (* 0-25) | 0.101 to 0.5 | 0.001 to 0.5 | * (* 0-25) | 81.4 | 5.09 | < 0.1 | 0.501 to 1
8 | O=C(Nc1nc2cccc(-c3ccc(CN4CCC(F)(F)CC4)cc3)n2n1)C1CC1 [Compound 234, Cyclopropanecarboxylic acid {5-[4-(4,4-difluoro-piperidin-1-ylmethyl)-phenyl]-[1,2,4]triazolo[1,5-a]pyridin-2-yl}-amide] | < 0.1 | ** (** 26-50) | 0.101 to 0.5 | 0.001 to 0.5 | ** (** 26-50) | 366 | 0.9 | < 0.1 | 0.501 to 1
9 | O=C(Nc1nc2cccc(-c3ccc(OCc4ccc(C(F)(F)F)nc4)cc3)n2n1)C1CC1 [Compound 78, N-(5-(4-((6-(trifluoromethyl)pyridin-3-yl)methoxy)phenyl)-[1,2,4]triazolo[1,5-a]pyridin-2-yl)cyclopropanecarboxamide] | < 0.1 | **** (**** 76-100) | 0.101 to 0.5 | 0.501 to 1 | **** (**** 76-100) | – | 1.5 | < 0.1 | > 1
10 | O=C(Nc1nc2cccc(-c3ccc(CC(=O)N4CCC(C(F)(F)F)CC4)cc3)n2n1)C1CC1 [Compound 319, Cyclopropanecarboxylic acid (5-{4-[2-oxo-2-(4-trifluoromethyl-piperidin-1-yl)-ethyl]-phenyl}-[1,2,4]triazolo[1,5-a]pyridin-2 yl)-amide] | – | * (* 0-25) | 0.101 to 0.5 | > 1 | * (* 0-25) | 112 | – | < 0.1 | 0.501 to 1
11 | O=C(NCc1cccc(F)c1)c1ccc(-c2cccc3nc(NC(=O)C4CC4)nn23)cc1 [Compound 29, 4-(2-(cyclopropanecarboxamido)-[1,2,4]triazolo[1,5-a]pyridin-5-yl)-N-(3-fluorobenzyl)benzamide] | 0.101 to 0.5 | ** (** 26-50) | > 1 | > 1 | *** (*** 51-75) | 77.8 | 5.2 | < 0.1 | 0.101 to 0.5
12 | CN(CCc1ccccc1)C(=O)c1ccc(-c2cccc3nc(NC(=O)C4CC4)nn23)cc1 [Compound 96, 4-(2-(cyclopropanecarboxamido)-[1,2,4]triazolo[1,5-a]pyridin-5-yl)-N-methyl-N-phenethylbenzamide] | < 0.1 | * (* 0-25) | > 1 | > 1 | * (* 0-25) | 346 | 1 | < 0.1 | > 1
13 | O=C(NCCc1ccccc1)c1ccc(-c2cccc3nc(NC(=O)C4CC4)nn23)cc1 [Compound 87, 4-(2-(cyclopropanecarboxamido)-[1,2,4]triazolo[1,5-a]pyridin-5-yl)-N-phenethylbenzamide] | < 0.1 | * (* 0-25) | 0.101 to 0.5 | 0.501 to 1 | * (* 0-25) | 209 | 1.81 | < 0.1 | 0.101 to 0.5
14 | O=C(Nc1nc2cccc(-c3ccc(OCc4ncon4)cc3)n2n1)C1CC1 [Compound 99, N-(5-(4-((1,2,4-oxadiazol-3-yl)methoxy)phenyl)-[1,2,4]triazolo[1,5-a]pyridin-2-yl)cyclopropanecarboxamide] | < 0.1 | * (* 0-25) | 0.101 to 0.5 | 0.001 to 0.5 | ** (** 26-50) | 389 | 0.81 | < 0.1 | 0.101 to 0.5
